Test results published in patent US20240167075A1, “METHODS FOR ASSAYING ENZYME ACTIVITY” (Regeneron Pharmaceuticals, Inc., priority 2022, published 2024).
Entries after “also recorded” stand apart in the source; their conditions may differ.

B1: β4GALT1 with N352S mutation: missense variant (rs551564683, p.Asn352Ser) in β4GALT1 (protein, UniProt P15291 1-398, looked up, variant N352S)
chain: MRLREPLLSGSAAMPGASLQRACRLLVAVCALHLGVTLVYYLAGRDLSRLPQLVGVSTPLQGGSNSAAAIGQSSGELRTGGARPPPPLGASSQPRPGGDSSPVVDSGPGPASNLTSVPVPHTTALSLPACPEESPLLVGPMLIEFNMPVDLELVAKQNPNVKMGGRYAPRDCVSPHKVAIIIPFRNRQEHLKYWLYYLHPVLQRQQLDYGIYVINQAGDTIFNRAKLLNVGFQEALKDYDYTCFVFSDVDLIPMNDHNAYRCFSQPRHISVAMDKFGFSLPYVQYFGGVSALSKQQFLTINGFPNNYWGWGGEDDDIFNRLVFRGMSISRPNAVVGRCRMIRHSRDKKNEPSPQRFDRIAHTKETMLSDGLNSLTYQVLDVQRYPLYTQITVDIGTPS

Legend:
Type in all cases: biochemical
[1] = tested on: β4GALT1; experiment: commercial Phosphate Glycosyltransferase Activity kit (R&D Systems), malachite green phosphate detection; settings: UDP-Gal glycosyl donor, coupling phosphatase; FIG. 4
Source text: The commercial Phosphate Glycosyltransferase Activity kit was purchased from R&D Systems. The principle of the assay along with the materials provided were utilized according to manufacturer's conditions. In brief, a diphosphonucleotide sugar (such as UDP-Gal) is used as a glycosyl donor and mixed with a glycosyl acceptor, a phosphatase, and a glycosyltransferase. Glycosyltransferase activity exposes a phosphate of the glycosyl donor to phosphatase activity, releasing free phosphate. The amount of phosphate present should be directly proportional to the amount of formed glycosylated product. The kit also uses a specific phosphatase to remove an inorganic phosphate quantitatively from UDP. The released inorganic phosphate is subsequently quantitated by sensitive colorimetric malachite green phosphate detecting reagents. The amount of inorganic phosphate released by the coupling phosphatase should be equal to the nucleotide sugar consumed or glycoconjugate product generated. Therefore, the rate of inorganic phosphate products should reflect the kinetics of a glycosyltransferase reaction (specific activity of the enzyme). The steps as performed are outlined in FIG. 3.
To estimate the amount of UDP produced in the enzymatic reaction, a phosphate standard curve was established according to manufacturer's conditions. […]

[2] = tested on: β4GALT1; experiment: HILIC-UV/MS based assay of β4GALT1 activity (method of Montasser et al.)
Source text: Montasser et al. attempted to assay enzyme activity using a method involving quantification of the β4GALT1 substrate UDP-Gal, by measuring its peak area using hydrophilic interaction chromatography-ultraviolet detection-mass spectroscopy. The method as outlined in Montasser et al. was followed, using HILIC-UV-MS to quantitate the decrease of UDP-Gal as a measure of β4GALT1 activity. In particular, the decrease of UDP-Gal could be measured using UV detection and the corresponding increase of GlcNAc-Gal could be measured using MS.
The glycosyl donor was 1.7 nmol UDP-Gal; the glycosyltransferase was 1.1 pmol β4GALT1; and the glycosyl acceptor was 500 nmol GlcNAc. All samples were analyzed using an Acquity UPLC I-Class coupled with Vion IMS Q-Tof (Waters, Milford, MA, USA). A Waters Acquity UPLC Glycoprotein BEH Amide chromatographic column (300 Å, 150 mm×2.1 mm, 1.7 μm) was used to separate the analytes with a column temperature of 45° C. and a flow rate of 0.2 mL/minute. Mobile phase A was 50 mM ammonium acetate at a pH 7.5, and mobile phase B was 5% (v/v) 25 mM ammonium acetate at a pH 7.5 in acetonitrile. A 1 μL aliquot of each mixture (wildtype and mutant β4GALT1) was injected for analysis.
The difference in activity between the wildtype and mutant β4GALT1 was tested using paired two-sided Student's t-test.

[3] = tested on: β4GALT1; experiment: HILIC-FLR-MS based assay of β4GALT1 activity with 2-AB-G0F labeling substrate; settings: 1.1 pmol B4GALT1, 1.7 nmol UDP-Gal, 10 pmol 2-AB-G0F, room temperature, 0 to 60 minutes; FIG. 8, 12, 13
Protocol: Specifically, the enzymatic activities were measured using uridine diphosphate galactose (UDP-Gal) as a donor substrate and a labeled glycan (2-AB-G0F) as the labeling substrate. The experiment was carried out over eight different time points.
The enzymatic reaction was initiated by adding 1.1 pmol of B4GALT1 into a mixture of 1.7 nmol UDP-Gal (the glycosyl donor) and 10 pmol of 2-AB-G0F (the glycosyl acceptor), and the mixture was incubated at room temperature for 2, 5, 10, 15, 25, 40, and 60 minutes. The sample representing the initial time point (0 min) was prepared by omitting the enzyme. This HILIC-FLR-MS based method was used to quantitate both the decrease of UDP-Gal and the increase in formation of the products (G1F/G2F).
All samples were analyzed using an Acquity UPLC I-Class coupled with Vion IMS Q-Tof (Waters, Milford, MA, USA). A Waters Acquity UPLC Glycoprotein BEH Amide chromatographic column (300 Å, 150 mm×2.1 mm, 1.7 μm) was used to separate the analytes with a column temperature of 60° C. and a flow rate of 0.5 mL/minute. Mobile phase A was 50 mM ammonium acetate at a pH 4.4, and mobile phase B was acetonitrile. A 5 μL aliquot of each mixture was injected onto the column for HILIC-MS analysis. The sample run time was 12 minutes.
The samples were monitored using a UV detector at a wavelength of 280 nm and fluorescence with excitation at a wavelength of 330 nm and emission at a wavelength of 420 nm. The Waters Vion IMS Q-Tof mass spectrometer was operated in positive mode and the mass spectra were acquired with a m/z range between 600 and 2000. UDP-Gal was quantitated and the data were collected and processed using UNIFI software (Waters).

Molecule	specific activity (enzyme activity) determined using a commercial kit [1]	decrease in UDP-Gal (UV peak area) ([2]; 1.7 nmol UDP-Gal, 1.1 pmol β4GALT1, 500 nmol GlcNAc, 2, 5, 10, 15, 25, 40, and 60 minutes, FIG. 5)	increase in the amounts of the product (GlcNAc-Gal) over time, MS ([2]; 2, 5, 10, 15, 25, 40, and 60 minutes, FIG. 6)	activity suggested by decrease in UDP-Gal ([2]; wildtype compared to mutant, FIG. 5)	fluorescent signal for 2-AB-G0F (labeling substrate) over time [3]	signal for the products 2-AB-G1F and 2-AB-G2F over time [3]
Beta-1,4-galactosyltransferase 1 [wildtype β4GALT1]	less active than β4GALT1 with N352S mutation	significantly more	significantly more	higher activity	reduction in the signal; also recorded: declines substantially over time	increase substantially over time
B1	–	–	–	–	less so	less so
